Measured values published in a melting point compilation (Tetko et al.; mined from patent text by program, amines drawn as free bases though some values may be those of a salt).

With `Cc1ccc(-c2ccc(C)cc2[N+](=O)[O-])c([N+](=O)[O-])c1` as the molecule, how does the melting point read?
The melting point was 138 to 141 °C.

Which melting point does the source give for `Cc1cc(C)c2c(c1)OCC2c1ccc(C(C)C)cc1` (stereo not given) here?
The melting point was 46 to 47 °C.

Which melting point does the source give for `O=C(O)C(=O)N1CCc2cc(S(=O)(=O)N3CCN(c4cccc(Cl)c4)CC3)ccc21` here?
The melting point was 219 to 220 °C.

For `C=CCNc1nc(NCCCC)c2scc(C)c2n1`, which melting point is on record?
Its melting point is 68 to 70 °C.

Which melting point does the source give for `O=[N+]([O-])c1ccc2c(c1)C(n1ccccc1=S)=CC(CF)(CF)O2` here?
Its melting point is 209 to 210 °C.

For `CCCCCOC(=O)C1CC(=O)NN1c1ncccc1Cl` (stereo not given), which melting point is on record?
The melting point was 66 to 68 °C.

For `N#CCc1ccccc1Sc1ccc(Cl)c(Cl)c1`, which melting point is on record?
The melting point was 48 to 49 °C.

With `CCC1c2ccc(C#N)n2-c2ccc(F)cc2N1S(=O)(=O)c1ccc(O)cc1` (stereo not given) as the molecule, how does the melting point read?
Its melting point is 169 to 171 °C.

For `CCCN(Cc1ccc(-c2ccccc2-c2nnn[nH]2)cc1)c1ncncc1C(=O)OCC`, which melting point is on record?
The melting point was 160 to 162 °C.

With `Cn1c(C(F)(F)F)ccc(-c2c(F)cc(Cl)c3occc23)c1=O` as the molecule, how does the melting point read?
Its melting point is 178 to 179 °C.

With `CC(C)Oc1c(C(N)=O)sc2ccc(N)cc12` as the molecule, how does the melting point read?
The melting point was 150 to 151 °C.

For `Cc1c(Nc2c(C#N)cncc2-c2cnc(C=O)n2C)ccc2[nH]ccc12`, which melting point is on record?
The melting point was 200 to 202 °C.

For `Cc1nnc(-c2ccc3occ(-c4ccc(S(C)=O)c(Cl)c4)c3c2)o1` (stereo not given), which melting point is on record?
Its melting point is 196 to 197 °C.

Which melting point does the source give for `Cc1ccc(S(=O)(=O)OCC2Cc3cc(C)c4c(c3O2)CCC4)cc1` (stereo not given) here?
The melting point was 61 to 64 °C.

With `CCOC(=O)CC(=O)Nc1ccc(Cl)cc1` as the molecule, how does the melting point read?
The melting point was 82 °C.

With `COc1ccc(C(=C/C=C/C(=O)NC(C)(C)CCCc2cccnc2)c2ccc(OC)cc2)cc1` as the molecule, how does the melting point read?
Its melting point is 144 to 145 °C.

Which melting point does the source give for `O=C(Cl)c1cc(Cl)c(Cl)c(Cl)n1` here?
Its melting point is 60 to 62 °C.

For `C=C1CC2C(CCC3(C)C2C=CC3(C)O)C2(C)CCC(=O)C=C12` (stereo not given), which melting point is on record?
Its melting point is 162 °C.

Which melting point does the source give for `CC12CCC3c4ccc(O)cc4CC(CCCCCO)C3C1C=CC2=O` (stereo not given) here?
Its melting point is 194 to 196 °C.

With `COCc1nc2c(N)nc3cc(CCC(=O)N4CCOCC4)ccc3c2n1CC(C)(C)O` as the molecule, how does the melting point read?
Its melting point is 215 to 217 °C.

With `COC(=O)c1ccc(OCCc2nc(-c3ccccc3)oc2C)cc1O` as the molecule, how does the melting point read?
Its melting point is 133 to 134 °C.

For `Nc1ccccc1Sc1c(N)[nH]c(=O)[nH]c1=O`, which melting point is on record?
Its melting point is greater than 310 °C.

With `COc1cc2c(cc1Br)-c1cc3c(n1CC2)C(=O)N(C(C)(C)C)CCC(C)(C)C3` as the molecule, how does the melting point read?
Its melting point is 175 to 177 °C.

For `COc1ccc(C(Sc2cc(Oc3ccc(Cl)cc3)ccc2N)C(O)C(=O)O)cc1` (stereo not given), which melting point is on record?
Its melting point is 179 to 181 °C.

Which melting point does the source give for `CCOC(=O)CN1CCN(CCOc2cc3c(Nc4cccc(Br)c4)ncnc3cc2OC)CC1` here?
Its melting point is 155 °C.

With `O=C(c1cccc2[nH]ccc12)N1CCOCC1` as the molecule, how does the melting point read?
Its melting point is 127 to 129 °C.

Which melting point does the source give for `COC(=O)c1cc2c3ccccc3nc(C)n2n1` here?
The melting point was 155 to 156 °C.

For `CC(C)C[C@H](NC(=O)OC(C)(C)C)C(=O)NCC(=O)OCCCNc1cccc2c1C(=O)c1ccccc1C2=O`, which melting point is on record?
The melting point was 86 °C.

With `CCOC(=O)c1ccc(-c2cc3c(N[C@H](C)c4ccccc4)ncnc3[nH]2)cc1` as the molecule, how does the melting point read?
The melting point was 288 to 290 °C.

With `Cc1ccc2[nH]c(=O)oc2c1` as the molecule, how does the melting point read?
Its melting point is 144 to 145 °C.

With `OC1CCCN(CC(O)COc2ccc(-c3ccc(Cl)cc3)cc2)C1` (stereo not given) as the molecule, how does the melting point read?
The melting point was 95 to 97 °C.

For `N#CCOc1ccc2cc(-c3cc4ccccc4s3)ccc2c1Br`, which melting point is on record?
Its melting point is 179 to 181 °C.

With `COC(=O)N(C(=O)Cl)c1ccc(OC(F)(F)F)cc1` as the molecule, how does the melting point read?
The melting point was 97 to 99 °C.

Which melting point does the source give for `Cc1nsc(NC(=O)Cc2ccc3nn(CC(C)C)cc3c2)c1Cl` here?
The melting point was 133 to 135 °C.

With `COC(=O)c1c(OCc2ccccc2)ccc2c1CC[C@H](NC(C)C)[C@@H]2O` (relative stereo) as the molecule, how does the melting point read?
Its melting point is 91 to 92 °C.

With `Cc1nc2cc(OCCO)ccc2s1` as the molecule, how does the melting point read?
The melting point was 67 to 68 °C.

For `O=C(CCCCCN1CCN(c2ccccc2)CC1)Nc1ccc(O)cc1`, which melting point is on record?
The melting point was 157 to 159 °C.

With `CC1=CC(C)(C)C=C(O)C1` as the molecule, how does the melting point read?
The melting point was 46 °C.

Which melting point does the source give for `CN1C(=O)[C@H](NC(=O)/C=C/c2ccc3c(c2)OCO3)N=C(c2ccccc2)c2ccccc21` here?
Its melting point is 143 to 145 °C.

With `CN1CCN(c2ccc(C(=O)NC3CCCNC(=O)C3)cc2)CC1` (stereo not given) as the molecule, how does the melting point read?
The melting point was 232 to 234 °C.

For `N#Cc1cnc2sc(-c3ccccc3C=O)cc2c1Nc1cccc2[nH]ccc12`, which melting point is on record?
The melting point was 137 to 139 °C.

For `COc1ccc(-n2nc3c4c([nH]cc-3c2=O)CCCCCCCC4)cc1`, which melting point is on record?
Its melting point is 143 to 150 °C.

Which melting point does the source give for `CCN(CC)CCCC1CCN(CCNC(=O)N2c3ccccc3NC(=O)c3csc(C)c32)CC1` here?
The melting point was 131 to 133 °C.

For `CCOC(=O)COc1c(Br)cc(-c2cccc3sc4ccccc4c23)cc1Br`, which melting point is on record?
Its melting point is 140 to 142 °C.

For `N#Cc1cnc2sc(-c3ccccc3)cc2c1Nc1cccc2[nH]ccc12`, which melting point is on record?
Its melting point is greater than 245 °C.

With `CCOC(=O)C1=C(C)NC(c2cnc(C)s2)=NC1c1ccc(F)cc1Cl` (stereo not given) as the molecule, how does the melting point read?
The melting point was 107 to 111 °C.

For `Cc1oc(-c2ccc(Cl)cc2)cc1C(=O)N[C@H](C)[C@](O)(Cn1cncn1)c1ccc(F)cc1F`, which melting point is on record?
The melting point was 189 to 190 °C.

With `CC1CC=C(Nc2ccc(Br)cc2)c2ncc(C(=O)O)c(=O)n21` (stereo not given) as the molecule, how does the melting point read?
Its melting point is 202 to 204 °C.

With `CC(C)(C)OC(=O)CC(NC(=O)C1CCCN2C(=O)CCC(NS(C)(=O)=O)C(=O)N12)C(=O)COC(=O)c1ccccc1Oc1ccccc1` (stereo not given) as the molecule, how does the melting point read?
Its melting point is 85 to 100 °C.

With `COc1ccc2c(CC(=O)O)c(C(=O)c3cc(C)ccn3)[nH]c2c1` as the molecule, how does the melting point read?
The melting point was 204 °C.
